In ChEMBL document CHEMBL5154935, “Design, Synthesis, and Biological Evaluation of Novel Evodiamine Derivatives as Potential Antihepatocellular Carcinoma Agents” (J Med Chem, 2022):
Active and inactive are the calls of the source. The rule behind the calls is not given here.

Experiments:
[1] = Induction of apoptosis in rat HSC-T6 cells assessed as necrotic cells at 80 nM pretreated with TGFbeta-1 for 1 day followed by compound addition and measured after 24 hrs by flow cytometry (reference value: 0.56 %); assay type: functional
[2] = system: Huh-7; assay: Induction of apoptosis in human Huh-7 cells assessed as late apoptotic cells at 80 nM incubated for 24 hrs by annexin V-FITC/PI staining flow cytometry (reference value: 1.33 %); assay type: functional
[3] = system: Huh-7; assay: Induction of apoptosis in human Huh-7 cells assessed as early apoptotic cells at 80 nM incubated for 24 hrs by annexin V-FITC/PI staining flow cytometry (reference value: 0.33 %); assay type: functional
[4] = system: Huh-7; assay: Induction of cell cycle arrest in human Huh-7 cells assessed as accumulation at S phase at 80 nM treated for 24 hrs by PI staining based flow cytometry (reference value: 23.33 %); assay type: functional
[5] = system: SK-HEP1; assay: Induction of apoptosis in human SK-Hep1 cells assessed as viable cells at 80 nM incubated for 24 hrs by annexin V-FITC/PI staining flow cytometry (reference value: 97.8 %); assay type: functional; settings: read-out: Activity
[6] = system: SK-HEP1; assay: Induction of apoptosis in human SK-Hep1 cells assessed as late apoptotic cells at 80 nM incubated for 24 hrs by annexin V-FITC/PI staining flow cytometry (reference value: 1.13 %); assay type: functional
[7] = Antiproliferative activity against human L02 cells treated for 72 hrs by MTT assay; assay type: toxicity, cell-based
[8] = system: SMMC-7721; assay: Antiproliferative activity against human SMMC-7721 cells treated for 72 hrs by MTT assay; assay type: functional, cell-based; settings: SMMC-7721, 72 h
[9] = system: HCCLM9; assay: Antiproliferative activity against human HCCLM9 cells treated for 72 hrs by MTT assay; assay type: functional, cell-based; settings: HCCLM9, 72 h
[10] = system: Huh-7; assay: Induction of apoptosis in human Huh-7 cells assessed as viable cells at 80 nM incubated for 24 hrs by annexin V-FITC/PI staining flow cytometry (reference value: 97.3 %); assay type: functional; settings: read-out: Activity
[11] = Induction of apoptosis in rat HSC-T6 cells assessed as early apoptotic cells at 80 nM pretreated with TGFbeta-1 for 1 day followed by compound addition and measured after 24 hrs by flow cytometry (reference value: 0.17 %); assay type: functional
[12] = target: DNA topoisomerase 2-alpha (Homo sapiens) (UniProt P11388); assay: Inhibition of human Top2-alpha expressed in baculovirus assessed as inhibition of relaxation of supercoiled pBR322 plasmid DNA at 100 uM incubated for 30 mins in presence of ATP by ethidium bromide staining based agarose gel electrophoresis analysis relative to control
Sequence of DNA topoisomerase 2-alpha (Homo sapiens) (P11388 whole entry): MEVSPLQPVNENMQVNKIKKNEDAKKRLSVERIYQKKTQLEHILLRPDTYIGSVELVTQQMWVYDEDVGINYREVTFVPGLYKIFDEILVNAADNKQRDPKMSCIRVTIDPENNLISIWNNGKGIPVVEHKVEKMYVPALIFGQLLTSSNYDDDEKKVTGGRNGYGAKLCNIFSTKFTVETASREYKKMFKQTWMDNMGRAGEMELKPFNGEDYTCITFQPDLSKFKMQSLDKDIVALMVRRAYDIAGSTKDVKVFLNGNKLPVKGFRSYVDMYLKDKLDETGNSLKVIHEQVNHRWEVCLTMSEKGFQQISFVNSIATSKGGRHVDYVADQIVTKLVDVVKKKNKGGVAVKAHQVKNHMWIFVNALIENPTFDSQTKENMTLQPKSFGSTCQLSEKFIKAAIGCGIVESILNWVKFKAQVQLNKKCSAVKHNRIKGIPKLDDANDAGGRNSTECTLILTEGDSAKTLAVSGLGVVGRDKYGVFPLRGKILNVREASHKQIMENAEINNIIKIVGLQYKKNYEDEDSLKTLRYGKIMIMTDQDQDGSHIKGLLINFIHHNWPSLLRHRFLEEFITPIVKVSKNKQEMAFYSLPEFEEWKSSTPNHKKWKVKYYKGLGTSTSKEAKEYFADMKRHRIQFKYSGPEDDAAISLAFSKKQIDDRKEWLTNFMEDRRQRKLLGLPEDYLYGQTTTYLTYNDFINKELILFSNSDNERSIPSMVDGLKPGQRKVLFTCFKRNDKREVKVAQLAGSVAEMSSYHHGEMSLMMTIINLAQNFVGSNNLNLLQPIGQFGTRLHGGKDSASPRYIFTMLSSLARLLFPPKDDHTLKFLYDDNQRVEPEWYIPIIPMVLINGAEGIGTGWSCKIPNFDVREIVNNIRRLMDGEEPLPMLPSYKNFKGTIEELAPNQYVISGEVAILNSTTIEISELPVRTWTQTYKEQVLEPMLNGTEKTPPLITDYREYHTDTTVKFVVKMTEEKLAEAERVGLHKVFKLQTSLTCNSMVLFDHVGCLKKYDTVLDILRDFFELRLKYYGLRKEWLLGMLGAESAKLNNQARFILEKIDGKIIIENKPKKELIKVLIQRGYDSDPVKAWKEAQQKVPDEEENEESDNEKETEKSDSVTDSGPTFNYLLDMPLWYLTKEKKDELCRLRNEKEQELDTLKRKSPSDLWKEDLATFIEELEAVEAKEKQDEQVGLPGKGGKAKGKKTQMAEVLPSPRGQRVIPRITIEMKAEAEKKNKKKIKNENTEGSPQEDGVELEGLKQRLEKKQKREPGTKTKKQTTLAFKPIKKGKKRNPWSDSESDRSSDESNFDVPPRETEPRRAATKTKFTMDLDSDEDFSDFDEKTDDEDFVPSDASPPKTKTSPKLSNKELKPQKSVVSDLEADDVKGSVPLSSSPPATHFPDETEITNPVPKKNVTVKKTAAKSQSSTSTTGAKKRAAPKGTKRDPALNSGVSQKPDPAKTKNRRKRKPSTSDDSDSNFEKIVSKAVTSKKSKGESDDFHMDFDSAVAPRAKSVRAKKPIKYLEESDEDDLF

[13] = Induction of apoptosis in rat HSC-T6 cells assessed as viable cells at 80 nM pretreated with TGFbeta-1 for 1 day followed by compound addition and measured after 24 hrs by flow cytometry (reference value: 97.5 %); assay type: functional; settings: read-out: Activity
[14] = Induction of apoptosis in rat HSC-T6 cells assessed as late apoptotic cells at 80 nM pretreated with TGFbeta-1 for 1 day followed by compound addition and measured after 24 hrs by flow cytometry (reference value: 1.76 %); assay type: functional
[15] = system: SK-HEP1; assay: Induction of apoptosis in human SK-Hep1 cells assessed as early apoptotic cells at 80 nM incubated for 24 hrs by annexin V-FITC/PI staining flow cytometry (reference value: 0.30 %); assay type: functional
[16] = system: SK-HEP1; assay: Induction of apoptosis in human SK-Hep1 cells assessed as necrotic cells at 80 nM incubated for 24 hrs by annexin V-FITC/PI staining flow cytometry (reference value: 0.73 %); assay type: functional
[17] = system: Huh-7; assay: Induction of cell cycle arrest in human Huh-7 cells assessed as accumulation at G1 phase at 80 nM treated for 24 hrs by PI staining based flow cytometry (reference value: 60.77 %); assay type: functional
[18] = system: SK-HEP1; assay: Induction of cell cycle arrest in human SK-Hep1 cells assessed as accumulation at G1 phase at 80 nM treated for 24 hrs by PI staining based flow cytometry (reference value: 58.47 %); assay type: functional
[19] = system: SK-HEP1; assay: Antiproliferative activity against human SK-HEP1 cells treated for 72 hrs by MTT assay; assay type: functional, cell-based; settings: SK-HEP1, 72 h
[20] = target: T1, DNA topoisomerase 1 (Homo sapiens) (UniProt P11387); assay: Inhibition of Top1 (unknown origin) assessed as inhibition of relaxation of supercoiled pBR322 plasmid DNA at 50 uM incubated for 25 mins by ethidium bromide staining based agarose gel electrophoresis analysis relative to control
T1 sequence (whole entry): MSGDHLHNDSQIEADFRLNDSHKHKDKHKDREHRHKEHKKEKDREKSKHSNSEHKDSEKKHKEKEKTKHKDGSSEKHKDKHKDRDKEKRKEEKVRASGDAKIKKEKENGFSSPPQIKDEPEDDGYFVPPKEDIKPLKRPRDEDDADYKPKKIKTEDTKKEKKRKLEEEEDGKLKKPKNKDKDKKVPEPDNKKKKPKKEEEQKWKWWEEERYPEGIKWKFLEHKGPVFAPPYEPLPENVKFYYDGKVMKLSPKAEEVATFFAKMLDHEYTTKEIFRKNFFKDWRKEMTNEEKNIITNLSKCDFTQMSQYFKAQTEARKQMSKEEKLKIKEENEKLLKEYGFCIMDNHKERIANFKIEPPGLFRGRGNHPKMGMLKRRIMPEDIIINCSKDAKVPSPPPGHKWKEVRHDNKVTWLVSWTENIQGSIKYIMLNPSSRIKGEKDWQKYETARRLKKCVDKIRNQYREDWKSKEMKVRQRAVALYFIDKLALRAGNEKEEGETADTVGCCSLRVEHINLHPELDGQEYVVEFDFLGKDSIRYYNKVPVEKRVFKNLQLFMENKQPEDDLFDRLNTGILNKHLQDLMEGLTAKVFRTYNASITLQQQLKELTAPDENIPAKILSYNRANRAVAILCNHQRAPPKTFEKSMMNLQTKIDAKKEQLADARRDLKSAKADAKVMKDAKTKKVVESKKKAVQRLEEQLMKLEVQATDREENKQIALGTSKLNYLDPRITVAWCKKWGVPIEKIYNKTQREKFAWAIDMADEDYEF

[21] = system: SK-HEP1; assay: Induction of cell cycle arrest in human SK-Hep1 cells assessed as accumulation at G2 phase at 80 nM treated for 24 hrs by PI staining based flow cytometry (reference value: 16.55 %); assay type: functional
[22] = system: Huh-7; assay: Induction of cell cycle arrest in human Huh-7 cells assessed as accumulation at G2 phase at 80 nM treated for 24 hrs by PI staining based flow cytometry (reference value: 15.90 %); assay type: functional
[23] = system: Huh-7; assay: Antiproliferative activity against human Huh-7 cells treated for 72 hrs by MTT assay; assay type: functional, cell-based; settings: Huh-7, 72 h
[24] = system: HepG2; assay: Antiproliferative activity against human HepG2 cells treated for 72 hrs by MTT assay; assay type: functional, cell-based; settings: HepG2, 72 h
[25] = system: Huh-7; assay: Induction of apoptosis in human Huh-7 cells assessed as necrotic cells at 80 nM incubated for 24 hrs by annexin V-FITC/PI staining flow cytometry (reference value: 1.08 %); assay type: functional
[26] = target: T1, DNA topoisomerase 1 (Homo sapiens); assay: Inhibition of Top1 (unknown origin) assessed as inhibition of relaxation of supercoiled pBR322 plasmid DNA at 12.5 uM incubated for 25 mins by ethidium bromide staining based agarose gel electrophoresis analysis relative to control
[27] = Toxicity in BALB/c mouse xenografted with human Huh-7 cells assessed as reduction in WBC levels at 10 mg/kg, ip qd for 11 days and measured on day 11; assay type: organism-based; settings: in vivo, 264 h, time 11 day
[28] = system: SK-HEP1; assay: Induction of cell cycle arrest in human SK-Hep1 cells assessed as accumulation at S phase at 80 nM treated for 24 hrs by PI staining based flow cytometry (reference value: 24.98 %); assay type: functional
[29] = Toxicity in BALB/c mouse xenografted with human Huh-7 cells assessed as histopathological change in heart at 10 mg/kg, ip qd for 11 days and measured after 12 days by hematoxylin and eosin staining based assay; assay type: organism-based; settings: in vivo, 288 h, time 12 day
[30] = Toxicity in BALB/c mouse xenografted with human Huh-7 cells assessed as histopathological change in spleen at 10 mg/kg, ip qd for 11 days and measured after 12 days by hematoxylin and eosin staining based assay; assay type: organism-based; settings: in vivo, 288 h, time 12 day
[31] = Toxicity in BALB/c mouse xenografted with human Huh-7 cells assessed as histopathological change in lung at 10 mg/kg, ip qd for 11 days and measured after 12 days by hematoxylin and eosin staining based assay; assay type: organism-based; settings: in vivo, 288 h, time 12 day
[32] = Toxicity in BALB/c mouse xenografted with human Huh-7 cells assessed as histopathological change in kidney at 10 mg/kg, ip qd for 11 days and measured after 12 days by hematoxylin and eosin staining based assay; assay type: organism-based; settings: in vivo, 288 h, time 12 day
[33] = system: Huh-7; assay: Antitumor activity against human Huh-7 cells xenografted in BALB/c mouse assessed as reduction in neo-vascularisation at 10 mg/kg, ip qd for 11 days and measured after 12 days by hematoxylin and eosin staining based assay; assay type: functional, organism-based; settings: time 12.0 day
[34] = system: HSC-T6; assay: Antiproliferative activity against TGF-beta-1-stimulated rat HSC-T6 cells assessed as suppression of cell proliferation at 6.67 to 60 uM preincubated with TGFbeta-1 for 1 day followed by compound addition and measured after 48 hrs; assay type: functional, cell-based; settings: dose 6.67-60 µM
[35] = Toxicity in BALB/c mouse xenografted with human Huh-7 cells assessed as histopathological change in liver at 10 mg/kg, ip qd for 11 days and measured after 12 days by hematoxylin and eosin staining based assay; assay type: organism-based; settings: in vivo, 288 h, time 12 day
[36] = system: Huh-7; assay: Antitumor activity against human Huh-7 cells xenografted in BALB/c mouse assessed as tumor growth inhibition at 10 mg/kg, ip qd for 11 days and measured every 2 days relative to control; assay type: functional; settings: Huh-7, 264 h, time 11 day, read-out: TGI

SMILES	Activity [1]	Activity [2]	Activity [3]	Activity [4]	viability at 0.08 µM [5]	Activity [6]	IC50 at 72 h [7]	IC50 [8]	IC50 [9]	viability at 0.08 µM [10]	Activity [11]	viability at 0.08 µM [13]	Activity [14]	Activity [15]	Activity [16]	Activity [17]	Activity [18]	IC50 [19]	Activity [21]	Activity [22]	also measured
CN1c2ccccc2C(=O)N2CCc3c([nH]c4ccccc34)C21 (stereo not given)	0.9%	5.83%	0.57%	23.42%	85%	2.79%	3950 nM	3040 nM	9270 nM	92%	0.27%	94.4%	4.44%	0.27%	1.01%	60.65%	60.43%	2920 nM	3.57%	15.93%	inhibition [12]: 48%; inhibition [20]: 63.4%; IC50 [23]: 2180 nM; IC50 [24]: 2670 nM; Activity [25]: 1.64%; inhibition [26]: 3.67%; Activity [27]: Toxic; Activity [28]: 36%
CNC(=O)c1cc(Oc2ccc(NC(=O)Nc3ccc(Cl)c(C(F)(F)F)c3)cc2)ccn1 [SORAFENIB]	0.85%	3.94%	0.23%	37.84%	94.1%	3.5%	5980 nM	2370 nM	3150 nM	94.6%	0.16%	91.5%	7.47%	1.01%	1.32%	53%	60.47%	1980 nM	5.43%	9.16%	Activity [29]: Non-Toxic; Activity [30]: Non-Toxic; Activity [31]: Non-Toxic; Activity [32]: Non-Toxic; Activity [33]: Active; Activity [34]: Active; IC50 [23]: 2600 nM; IC50 [24]: 2100 nM; Activity [25]: 1.18%; Activity [28]: 34.1%; Activity [35]: Non-Toxic; inhibition in vivo at 10 mg/kg [36]: 46.3%
